Assay results published in patent publication US20110165652A1, “COMPOSITIONS, METHODS AND SYSTEMS FOR SINGLE MOLECULE SEQUENCING” (LIFE TECHNOLOGIES CORPORATION, priority 2008, published 2011).

Tests used:
Assay type in all cases: biochemical
[1] = test system: 5′ fluorescein-labeled primer:template duplex; assay: Ensemble primer extension with gamma-labeled dNTP by Phi29 mutant protein; conditions: for Ensemble Extension Activity (polymerase active): cysteine to serine variants; for Ensemble Extension Activity: γ-nucleotide incorporation / Ensemble Extension Activity: activity with base-labeled nucleotides: relative to parent Phi29 exo(−) D12A/D66A; for Ensemble Extension Activity: γ-nucleotide incorporation: 0.5 μM or 5 μM gamma-labeled dNTP, 10 seconds to 5 minutes
Source text: Table 1, below, summarizes the ability of each mutant Phi29 polymerase to incorporate gamma-labeled nucleotides (as indicated in the column entitled “Ensemble Extension Activity”), fidelity of replication (as indicated in the column entitled “Fidelity”) and for activity in a single-molecule detected system, as depicted in FIGS. 20-59′ and 69-76 and associated description (see below), and indicated in the last column, entitled “Activity on Detection System.” Each and every mutation introduced into a given Phi29 mutant protein is listed in the column entitled “Mutations”; mutations are designated by the original amino acid/its position/its replacement, e.g., V250A means that valine at position 250 was replaced by alanine by site specific mutagenesis. If two or more amino acid substitutions are made, then each is designated as above and separated by a “/”. The predicted effect of a given mutation on polymerase activity, based on structure-function analysis of Phi29 polymerase, is provided in the column entitled “Expected Effect.” The various Phi29 mutants generated via selective mutagenesis, along with any applicable results of extension studies, fidelity assays and single molecule detection studies using each mutant protein, are collectively summarized in Table 1, below. To perform the extension studies, 330 nM Phi29 mutant protein and 100 nM 5′ fluorescein-labeled primer:template duplex were co-incubated in a solution comprising 50 mM Tris (pH 7.0), 2 mM MnCl2, 2 mM DTT, 0.1% Triton-X-100, 0.01% Tween-20. The reactions were initiated by addition of 0.5 μM or 5 μM of gamma-labeled dNTP, and quenched via addition of 30 mM EDTA at timepoints ranging from 10 seconds to 5 minutes. The reaction products were then separated on a 20% denaturing acrylamide gel and imaged on a Bio-Rad Molecular Imager FX. The intensity of each reaction product was quantified using Bio-Rad Quantity One software. FIGS. 20-59′ depict the results of extension studies conducted using specific Phi29 mutants.

[2] = test system: template specifying incorporation of a single γ-labeled nucleotide; assay: Real time on-surface single molecule detection of γ-labeled nucleotide incorporation; conditions: for Activity on Detection System: more signals: number of signals relative to parent enzyme
Experimental: Real time “On surface” experiments were performed to characterize the activity of the Phi29 variants on an exemplary single molecule sequencing system (FIGS. 72A and B). Chambered slides were prepared to facilitate injection and multiple experiments data collection from several chambers using a single slide. The template specified incorporation of a single γ-labeled nucleotide. The samples were excited using a 488 nm Argon ion laser at 2.5 mW and the data were collected at 25 ms integration time. Each stream of data was collected for 1500 frames, consecutive streams were collected for ˜5 minutes by moving to new fields of views (FOVs). FRETAN software was used to obtain the donor and acceptor traces.
After trace analysis, the selected signals (with acceptor signal over background greater than 4, i.e., ASN≧4) were characterized by examining attributes including duration, ASN and timing of signal appearance (i.e., start of signals). The variants that are of special interest include Variants 2 and 3.

[3] = test system: 5′ fluorescein-labeled primer:template duplex; assay: Replication fidelity: primer extension with incorrect (non-complementary) gamma-labeled nucleotide; conditions: incorrect gamma-labeled nucleotide in lieu of the complementary one
Experimental: To assay the replication fidelity of each mutant Phi29 polymerase protein, primer extensions were carried out in the same manner, except that an incorrect (i.e., non-complementary) gamma-labeled nucleotide was added to the extension mixture in lieu of the complementary nucleotide, and the amount of extended product following extension in presence of the incorrect nucleotide was analyzed.

Row | Substance | Ensemble Extension Activity: γ-nucleotide incorporation [1] | further results
1 | C22S/C290S/C448S: Phi29 exo(−) (D12A/D66A) polymerase mutant |  | Ensemble Extension Activity (polymerase active) [1]: Slightly less
2 | C22S/C290S/C530S: Phi29 exo(−) (D12A/D66A) polymerase mutant |  | Ensemble Extension Activity (polymerase active) [1]: Slightly less
3 | C22S/C448S/C530S: Phi29 exo(−) (D12A/D66A) polymerase mutant |  | Ensemble Extension Activity (polymerase active) [1]: Slightly less
4 | C22S: Phi29 exo(−) (D12A/D66A) polymerase mutant [Variant C22S] |  | Ensemble Extension Activity (polymerase active) [1]: Active
5 | C290S/C448S/C530S: Phi29 exo(−) (D12A/D66A) polymerase mutant |  | Ensemble Extension Activity (polymerase active) [1]: Slightly less
6 | C290S: Phi29 exo(−) (D12A/D66A) polymerase mutant [Variant C290S] |  | Ensemble Extension Activity (polymerase active) [1]: Active
7 | C448S: Phi29 exo(−) (D12A/D66A) polymerase mutant [Variant C448S] |  | Ensemble Extension Activity (polymerase active) [1]: Active
8 | C530S: Phi29 exo(−) (D12A/D66A) polymerase mutant [Variant C530S] |  | Ensemble Extension Activity (polymerase active) [1]: Active
9 | D456S: Phi29 exo(−) (D12A/D66A) polymerase mutant [Variant D456S] | Impaired | Activity on Detection System: more signals [2]: Fewer signals.
10 | D458N: Phi29 exo(−) (D12A/D66A) polymerase mutant [Variant D458N] | No activity | Fidelity (mis-incorporation) [3]: No activity
11 | E375A/Q380A: Phi29 exo(−) (D12A/D66A) polymerase mutant | More efficient | Activity on Detection System: more signals [2]: 3.5x more signals.
12 | E375C: Phi29 exo(−) (D12A/D66A) polymerase mutant [Variant E375C] | More efficient | Activity on Detection System: more signals [2]: Slightly higher; Activity on Detection System: Signals detected (timing of appearance) ([2]; relative to parent enzyme): earlier.; Activity on Detection System: high ASB signals ([2]; relative to parent enzyme): More high ASB signals.
13 | E375W: Phi29 exo(−) (D12A/D66A) polymerase mutant [Variant E375W] | Increased γ-nucleotide | 
14 | E375Y/V250C: Phi29 exo(−) (D12A/D66A) polymerase mutant | decreased | 
15 | E375Y/V250D: Phi29 exo(−) (D12A/D66A) polymerase mutant | no activity | 
16 | E375Y/V250G: Phi29 exo(−) (D12A/D66A) polymerase mutant | no activity | 
17 | E375Y/V250H: Phi29 exo(−) (D12A/D66A) polymerase mutant | decreased rate | 
18 | E375Y/V250K: Phi29 exo(−) (D12A/D66A) polymerase mutant | no activity | 
19 | E375Y/V250L: Phi29 exo(−) (D12A/D66A) polymerase mutant | decreased | 
20 | E375Y/V250P: Phi29 exo(−) (D12A/D66A) polymerase mutant | no activity | 
21 | E375Y/V250Q: Phi29 exo(−) (D12A/D66A) polymerase mutant | decreased | 
22 | E375Y/V250R: Phi29 exo(−) (D12A/D66A) polymerase mutant | no activity | 
23 | E375Y/V250S: Phi29 exo(−) (D12A/D66A) polymerase mutant | decreased | 

Row | Substance | Ensemble Extension Activity: γ-nucleotide incorporation [1] | further results
24 | E375Y/V250T: Phi29 exo(−) (D12A/D66A) polymerase mutant | decreased | 
25 | E375Y/V250W: Phi29 exo(−) (D12A/D66A) polymerase mutant | no activity | 
26 | E375Y: Phi29 exo(−) (D12A/D66A) polymerase mutant [Variant E375Y] | More efficient | extension (FIG. 70C, 70D) ([1]; ensemble PAGE analyses, γ-nucleotides): most significant increase in extension; Activity on Detection System: more signals [2]: 3x more signals.; Activity on Detection System: long duration signals ([2]; relative to parent enzyme): More long duration
27 | E486A: Phi29 exo(−) (D12A/D66A) polymerase mutant [Variant E486A] | Slightly decreased γ- | 
28 | E486D: Phi29 exo(−) (D12A/D66A) polymerase mutant [Variant E486D] | Decreased γ-nucleotide | 
29 | K371A: Phi29 exo(−) (D12A/D66A) polymerase mutant [Variant K371A] | Slightly lower than | 
30 | K371T: Phi29 exo(−) (D12A/D66A) polymerase mutant [Variant K371T] | Slightly lower than | 
31 | K383A: Phi29 exo(−) (D12A/D66A) polymerase mutant [Variant K383A] | Slightly lower than | 
32 | K383P: Phi29 exo(−) (D12A/D66A) polymerase mutant [Variant K383P] | decreased γ-nucleotide | 
33 | K383R: Phi29 exo(−) (D12A/D66A) polymerase mutant [Variant K383R] | Slightly lower than | 
34 | K478A: Phi29 exo(−) (D12A/D66A) polymerase mutant [Variant K478A] | Decreased γ-nucleotide | 
35 | K512A: Phi29 exo(−) (D12A/D66A) polymerase mutant [Variant K512A] | Slightly decreased γ- | 
36 | L384R: Phi29 exo(−) (D12A/D66A) polymerase mutant [Variant L384R] | Slightly decreased γ- | 
37 | N387A: Phi29 exo(−) (D12A/D66A) polymerase mutant [Variant N387A] | Significantly decreased γ- | Activity on Detection System: more signals [2]: Fewer signals.
38 | N387Y: Phi29 exo(−) (D12A/D66A) polymerase mutant [Variant N387Y] | Significantly decreased γ- | 
39 | S388G: Phi29 exo(−) (D12A/D66A) polymerase mutant [Variant S388G] | Decreased γ-nucleotide | 
40 | V250A/E375A/Q380A/D456E: Phi29 exo(−) (D12A/D66A) polymerase mutant | Impaired | 
41 | V250I/E375A/Q380A: Phi29 exo(−) (D12A/D66A) polymerase mutant | Decreased rate | 
42 | V250I/E375C: Phi29 exo(−) (D12A/D66A) polymerase mutant | Decreased rate | 
43 | V250I/E375Y: Phi29 exo(−) (D12A/D66A) polymerase mutant | Decreased rate | 
44 | V250I: Phi29 exo(−) (D12A/D66A) polymerase mutant [Variant V250I] | Decreased rate | Activity on Detection System: long duration signals ([2]; relative to parent enzyme): More long duration
45 | Y254F: Phi29 exo(−) (D12A/D66A) polymerase mutant [Variant Y254F] | Decreased γ-nucleotide | Ensemble Extension Activity: activity with base-labeled nucleotides [1]: incorporation, but increased
46 | Y254V: Phi29 exo(−) (D12A/D66A) polymerase mutant [Variant Y254V] | Decreased γ-nucleotide | Ensemble Extension Activity: activity with base-labeled nucleotides [1]: incorporation, but increased
